# Experimental data taken from PubChem BioAssay AID248 (DTP/NCI, 2004).
# Several values for one entry are separate records, joined by “and”; a condition that tells them apart may be missing. Equal entries are not always repeated. Inconclusive results and toxic doses are left out.
# Tested on: L1210 leukemia ip in BDF1 mice, survival T/C
# Experiment: NCI In Vivo Anticancer Drug Screen. Data for tumor model L1210 Leukemia (intraperitoneal) in B6D2F1 (BDF1) mice
# Conditions: endpoint: mean survival time, higher = longer survival
# Procedure, shortened: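 Transplanted-tumor mice were given test agent; controls received vehicle only. Survival readings from the two groups were divided (treated over control).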
# [1] = dose: 100.0 mg/kg/injection, schedule: Q04DX003 (ip), vehicle: saline
# [2] = dose: 200.0 mg/kg/injection, schedule: Q04DX003 (ip), vehicle: saline
# [3] = dose: 400.0 mg/kg/injection, schedule: Q04DX003 (ip), vehicle: saline
# [4] = dose: 100.0 mg/kg/injection, schedule: Q01DX009 (ip), vehicle: Klucel (hydroxypropylcellulose) (HPC)
# [5] = dose: 100.0 mg/kg/injection, schedule: Q04DX003 (ip), vehicle: Klucel (hydroxypropylcellulose) (HPC)
# [6] = dose: 200.0 mg/kg/injection, schedule: Q01DX009 (ip), vehicle: Klucel (hydroxypropylcellulose) (HPC)
# [7] = dose: 400.0 mg/kg/injection, schedule: Q01DX009 (ip), vehicle: Klucel (hydroxypropylcellulose) (HPC)
# [8] = dose: 100.0 mg/kg/injection, schedule: Q01DX001 (ip), vehicle: saline
# [9] = dose: 200.0 mg/kg/injection, schedule: Q01DX001 (ip), vehicle: saline
# [10] = dose: 400.0 mg/kg/injection, schedule: Q01DX001 (ip), vehicle: saline
smiles,measurement,setting,value
O=C1COc2ccc(F)cc2N1,T/C,"dose: 100.0 mg/kg/injection, schedule: Q04DX002 (ip), vehicle: Klucel (hydroxypropylcellulose) (HPC)",98 % of control
same,T/C,"dose: 200.0 mg/kg/injection, schedule: Q04DX002 (ip), vehicle: Klucel (hydroxypropylcellulose) (HPC)",102 % of control
same,T/C,"dose: 400.0 mg/kg/injection, schedule: Q04DX002 (ip), vehicle: Klucel (hydroxypropylcellulose) (HPC)",109 % of control
N#C/C(=C\c1ccccc1)c1cccc(Cl)c1,T/C,"dose: 100.0 mg/kg/injection, schedule: Q01DX009 (ip), vehicle: other",95 % of control
same,T/C,"dose: 200.0 mg/kg/injection, schedule: Q01DX009 (ip), vehicle: other",87 % of control
Cc1cc(NC(=O)NCc2ccc(N)cc2)ccc1S(=O)(=O)F,T/C,"dose: 100.0 mg/kg/injection, schedule: Q01DX009 (ip), vehicle: saline",95 % of control
same,T/C,[1],100 % of control
same,T/C,"dose: 200.0 mg/kg/injection, schedule: Q01DX009 (ip), vehicle: saline",114 % of control
same,T/C,[2],96 % of control
same,T/C,"dose: 400.0 mg/kg/injection, schedule: Q01DX009 (ip), vehicle: saline",93 % of control
same,T/C,[3],100 % of control
Clc1cccc2c(Cl)nccc12,T/C,"dose: 100.0 mg/kg/injection, schedule: Q04DX003 (ip), vehicle: saline with Tween-80",100 % of control
same,T/C,"dose: 200.0 mg/kg/injection, schedule: Q04DX003 (ip), vehicle: saline with Tween-80",94 % of control
same,T/C,"dose: 400.0 mg/kg/injection, schedule: Q04DX003 (ip), vehicle: saline with Tween-80",96 % of control
Cc1cc(OC(=O)Nc2ccccc2Cl)ccc1[N+](=O)[O-],T/C,[4],107 % of control
same,T/C,[5],100 % of control
same,T/C,[6],104 % of control
same,T/C,"dose: 200.0 mg/kg/injection, schedule: Q04DX003 (ip), vehicle: Klucel (hydroxypropylcellulose) (HPC)",89 % of control
same,T/C,[7],98 % of control
same,T/C,"dose: 400.0 mg/kg/injection, schedule: Q04DX003 (ip), vehicle: Klucel (hydroxypropylcellulose) (HPC)",102 % of control
O=S(=O)(F)c1cc(Cl)c(S)cc1Cl,T/C,"dose: 25.0 mg/kg/injection, schedule: Q04DX003 (ip), vehicle: Klucel (hydroxypropylcellulose) (HPC)",96 % of control
same,T/C,"dose: 50.0 mg/kg/injection, schedule: Q04DX003 (ip), vehicle: Klucel (hydroxypropylcellulose) (HPC)",96 % of control
same,T/C,[5],98 % of control and 106 % of control
O=NN(CCCl)C(=O)Nc1ccc(Cl)c(Cl)c1,T/C,"dose: 5.0 mg/kg/injection, schedule: Q01DX009 (ip), vehicle: carboxymethylcellulose (CMC)",121 % of control
same,T/C,"dose: 8.0 mg/kg/injection, schedule: Q01DX009 (ip), vehicle: carboxymethylcellulose (CMC)",114 % of control
same,T/C,"dose: 17.0 mg/kg/injection, schedule: Q01DX015 (ip), vehicle: carboxymethylcellulose (CMC)",114 % of control
same,T/C,"dose: 26.0 mg/kg/injection, schedule: Q01DX015 (ip), vehicle: carboxymethylcellulose (CMC)",163 % of control and 167 % of control
same,T/C,"dose: 39.0 mg/kg/injection, schedule: Q01DX015 (ip), vehicle: carboxymethylcellulose (CMC)",119 % of control and 121 % of control
same,T/C,"dose: 58.0 mg/kg/injection, schedule: Q01DX015 (ip), vehicle: carboxymethylcellulose (CMC)",117 % of control and 89 % of control
same,T/C,"dose: 100.0 mg/kg/injection, schedule: Q01DX001 (ip), vehicle: carboxymethylcellulose (CMC)",116 % of control
same,T/C,"dose: 200.0 mg/kg/injection, schedule: Q01DX001 (ip), vehicle: carboxymethylcellulose (CMC)",161 % of control
same,T/C,"dose: 300.0 mg/kg/injection, schedule: Q01DX001 (ip), vehicle: carboxymethylcellulose (CMC)",89 % of control
CC(=O)c1ccc2nc(C)cc(Cl)c2c1,T/C,[8],96 % of control
same,T/C,[9],91 % of control
same,T/C,[10],96 % of control
CC(C)CC1NC(=O)C(Cc2ccc(OCc3ccccc3)cc2)NC1=O (stereo not given),T/C,"dose: 100.0 mg/kg/injection, schedule: Q01DX009 (ip), vehicle: saline with Tween-80",102 % of control
same,T/C,[1],104 % of control
same,T/C,"dose: 200.0 mg/kg/injection, schedule: Q01DX009 (ip), vehicle: saline with Tween-80",96 % of control
same,T/C,[2],88 % of control
same,T/C,"dose: 400.0 mg/kg/injection, schedule: Q01DX009 (ip), vehicle: saline with Tween-80",100 % of control
same,T/C,[3],94 % of control
C=CC(C)(O)CCC1C(=C)CCC2C(C)(C)CCCC12C (stereo not given),T/C,[4],100 % of control
same,T/C,[6],100 % of control
same,T/C,[7],95 % of control
CN(C)Cc1ccc(C(C)(C)C)cc1,T/C,"dose: 25.0 mg/kg/injection, schedule: Q01DX009 (ip), vehicle: water",97 % of control
same,T/C,"dose: 50.0 mg/kg/injection, schedule: Q01DX009 (ip), vehicle: water",105 % of control
same,T/C,"dose: 100.0 mg/kg/injection, schedule: Q01DX009 (ip), vehicle: water",95 % of control
CCCCCCCCN1N=C(C)CCC1=O,T/C,[8],101 % of control
same,T/C,[9],90 % of control
same,T/C,[10],101 % of control
